# In patent US20200009068A1, “NANOPARTICLE FORMULATIONS FOR ENHANCED DRUG DELIVERY TO THE BLADDER” (The Johns Hopkins University, priority 2017, published 2020):
# Tests used:
# RT4 cells = assay: In vitro cytotoxicity assay (CellTiter-Glo cell viability); type: cell-based, human; conditions: 72 hr, triplicate
# Procedure: In vitro cytotoxicity of CDDP, oxaliplatin, PAA-CDDP NPs, PEGlow-PAA-CDDP NPs and PEGhigh-PAA-CDDP NPs was evaluated using a superficial bladder cancer cell line (RT4) in triplicate. RT4 cells were purchased from the American Type Culture Collection (ATCC, Manassas, Va.) and cultured in McCoy's 5A (Thermo Fisher Scientific, Waltham, Mass.) at 37° C. under 5% CO2. Cells were seeded in 96-well tissue-treated culture plates at a density of 5×10^3 cells in 100 μl of complete medium and cultured overnight. Then, the supernatant was removed, and a known concentration of CDDP, oxaliplatin, or CDDP NPs (100 μl) was added into the wells. After 72 hr, cell viability was measured using CellTiter-Glo Luminescent Cell Viability Assay Kit (Promega, Madison, Wis.) according to manufacturer's protocol. Acquired data was analyzed to depict sigmoidal dose-response curve with Graph Pad Prism 5 (Graph Pad Software Inc., San Diego, Calif.) using the equation log(inhibitor) vs. response-variable slope.
# [1] = tested on: N-methyl-N-nitrosourea (MNU) induced rat bladder carcinogenesis model; assay: In vivo efficacy, tumor staging by histopathology; conditions: weekly intravesical dosing weeks 8-14, 0.7 mg/ml in 300 μl, sacrifice week 15
# Description: The N-methyl-N-nitrosourea (MNU) rat model of bladder cancer was chosen because it recapitulates human non-muscle invasive bladder cancer, with carcinoma in situ (CIS), non-invasive papillary carcinoma (Ta), and high grade invasive papillary carcinoma (T1) histologies, and progresses from dysplasia to NMIBC to MIBC (Steinberg G D, et al., Cancer Res, 50(20):6668-74 (1990)). This animal model progresses from dysplasia to NMIBC between about week 8 and about week […], making it a desirable time to initiate treatment and a good recapitulation of a chemopreventative treatment model. Additionally, the MNU model represents an outbred strain of NMIBC, as opposed to an inbred strain utilizing immortal clones of genetically identical tumor strains. […] Since no reliable xenograft model was believed to be present of NMIBC that progresses to MIBC in a temporal time-dependent fashion similar to human urothelial cancer, a carcinogen model was chosen to recapitulate the heterogeneity of human disease, study the antineoplastic and immunologic effects of treatment, and reflect the typical progression of non-muscle to muscle invasive cancer. In this model, the presence of NMIBC progresses from about week 8 to about week 15, at which point all rats have NMIBC.
# Fischer 344 female rats (age 7 weeks) were anesthetized with an isoflurane vaporizer and nose cone system. […]
# [2] = tested on: N-methyl-N-nitrosourea (MNU) induced rat bladder carcinogenesis model; assay: Immunohistochemical staining of bladder sections; type: in vivo; conditions: CDDP study, week 15
# Procedure: Fischer 344 female rats (age 7 weeks) were anesthetized with an isoflurane vaporizer and nose cone system. After complete anesthesia and preparation of the surgical area, a 20G angiocatheter (BD) was placed into the rat's urethra and the bladder was emptied of urine. MNU (1.5 mg/kg MNU dissolved in 0.30 ml of 0.9% saline, pH 6.0) was then instilled into the bladder under 45 min of continued sedation to prevent spontaneous micturition and allow absorption. In order to explore the potential for treatment to prevent recurrence, treatment was initiated from weeks 8-14. Treatment groups (n=5 per group) included CDDP and PAA-CDDP NPs dosed weekly. All formulations were delivered at a concentration of 0.7 mg/ml in 300 μl. Rats were sacrificed at week 15 for histopathologic analysis of bladder tissue. Bladders were formalin fixed, paraffin embedded, sectioned, and stained with hematoxylin-eosin for classification according to the World Health Organization/International Society of Urological Pathology consensus. Tumor staging was performed in a blinded fashion by a board certified genitourinary pathologist.
# For immunohistochemical staining, high-temperature antigen retrieval (18-23 psi/126° C.) was performed by immersing the slides in Trilogy (Cell Marque, Hot Springs, Ark.). Endogenous peroxidase activity was blocked for 5 min in using Dual Endogenous Enzyme Block (Dako S2003). Primary Antibody used included KI 67 (Abcam;ab16667). Slides were stained with Impact DAB (Vector Labs, Burlingame, Calif., USA) for 3 min and counterstained with haematoxylin (Richard-Allen, Kalamazoo, Mich., USA). For each section, Ki67+, cells were counted in 10 random 400× fields.
# In a MNU-induced rat bladder carcinogenesis model as described in Example 3, Fischer Rat received weekly intravesical administration of Taxotere, DTX NS, or saline, for six weeks.
# [3] = Bladder uptake and retention in rats (CDDP content by AAS); type: in vivo; conditions: intravesical
# Procedure: Female Fischer 344 rats (age 7 weeks) were purchased from Harlan (Indianapolis, Ind.) and acclimated in the animal facility for 1 week. Before starting the experiment, rats were randomly divided into different groups (n≥5). Rats were anesthetized with an isoflurane vaporizer and nose cone system and catheterized using a 20G angiocatheter sheath. After catheterization, the bladder was voided using aspiration and/or gentle pressure on the abdomen. Then, 300 μl of CDDP solution, PAA-CDDP NPs, PEGlow-PAA-CDDP NPs, or PEGhigh-PAA-CDDP NPs (CDDP content 0.7 mg/ml) was instilled by intravesical administration. Rats were maintained under anesthesia for 1 h and then allowed to wake up. Plasma and bladder tissues were obtained at 1 and 4 h for analysis of CDDP content. Bladder tissues were dipped in PBS and gently squeezed with forceps to remove any residual fluid.
# (§1) 200 μl of plasma or bladder were transferred to a clean borosilicate glass cell culture tube, and 1 ml of 22% nitric acid was added. All samples were heated to 90° C. to digest plasma proteins or bladder tissues and to extract platinum. The solution was heated until a dry yellow film was obtained. Then, 1 ml of 2.2% nitric acid added to dissolve the dried residue containing platinum. CDDP content in the solution was analyzed by AAS. The lowest limit of quantification for CDDP was 250 ng/ml (<1% of the administered dose).
# [4] = 50 patients, intravesical CDDP for more than 4 months; cited from earlier work
# [5] = CDDP levels in mouse bladder after intravesical administration; type: in vivo; conditions: mice
# Procedure: Female CF-1 mice (age 8 weeks) were purchased from Harlan (Indianapolis, Ind.) and acclimated in the animal facility for 4 weeks. Mice were randomly divided into different groups (n≥5). Mice were anesthetized with an isoflurane vaporizer and nose cone system and catheterized using polyethylene tubing mounted on a 30G needle. After catheterization, the bladder was emptied of urine by aspiration and/or gentle pressure on the abdomen. Then, 100 μl of CDDP solution, PAA-CDDP NPs, PEGlow-PAA-CDDP NPs or PEGhigh-PAA-CDDP NPs at 0.7 mg/ml CDDP content was instilled into the bladder by intravesical administration. Mice were maintained under anesthesia for 1 h and then allowed to wake up. To assess systemic exposure, mice were euthanized at 1, 4, and 24 h and plasma was obtained for analysis of CDDP content. To assess local toxicity of CDDP solution and CDDP NPs, mice received a total of three intravesical doses spaced one week apart. Bladder tissues were obtained 24 h after the third dose, photographed, and weighed.
# as §1, with “The solution was heated until a dry yellow film was obtained. Then, 1 ml of 2.2% nitric acid added to dissolve the dried residue containing platinum.” left out
# [6] = systemic CDDP therapy; cited from earlier work
SMILES,RT4 cells-IC50 (RT4 cells),rats with T1 high grade tumors in the bladder [1] [%],Ki67+ staining compared to untreated controls [2],number of CD3+ cells compared to untreated controls [2],number of CD8+ cells compared to untreated controls [2],number of Foxp3+ cells compared to untreated controls [2],CDDP levels in rat bladder at 4 h [3],patients who stopped treatment early due to chemical cystitis [4] [%],patients with anaphylactic reaction due to systemic drug absorption resulting in hypotensive shock [4] [%],CDDP levels in mouse bladder at 1 h ([5]; 1 h under anesthesia),CDDP levels in mouse bladder at 4 h ([5]; 4 h (3 h ambulatory time)),cases with hypersensitivity reactions [6]
N.N.O=C([O-])C1(C(=O)[O-])CCC1.[Pt+2] [Carboplatin],17.18 ± 0.056 μg/ml of Pt,,,,,,,,,,,
"N.N.[Cl][Pt][Cl] [Cisplatin, cis-diamminedichloridoplatinum (II)]",1.39 ± 0.03 μg/ml of Pt,20,"decreased Ki67+ staining, though statistically indistinguishable from the untreated control group",without differences,significantly lower numbers,without differences,below the level of detection,6,14,similar,below the limit of quantitation,5-20%
